According to PMC9168271, “Discovery of Novel Tetrahydro-β-carboline Containing Aminopeptidase N Inhibitors as Cancer Chemosensitizers” (Frontiers in Oncology, 2022):
Like-named read-outs stand apart in the source and are kept apart here.

Biological target: Aminopeptidase N (APN, CD13) (Homo sapiens, UniProt P15144)
Experiment: APN enzyme inhibitory assay, supernatant of K562-CD13 cells as enzyme source, L-leucine-p-nitro anilide substrate;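 further: substrate L-leucine-p-nitro anilide used at 1.6 mM, with enzyme from sonicated APN-overexpressing K562 cell lysate supernatant, run in 96-well plates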
Settings: for inhibition at 30 µM: read-out: Inhibitory rate (%)
Description: In the enzyme inhibitory assay, K562-CD13 monoclonal cells were used as APN enzyme source as described in our previous work ([27]).
K562 cells with overexpression of APN were added into PBS for ultrasonic crushing, centrifuged for 10 minutes, and supernatant was taken as enzyme source and added into 96-well plate. Different concentrations of compounds were added subsequently, and 1.6 mM L-leucine-p-nitro anilide was used as substrate. After 30 minutes of reaction, the APN enzyme activity was measured at 405 nm absorbance. The inhibition rate of APN activity was analyzed by the formula (Od control OD tested)/Od control 100%.

Chain of Aminopeptidase N (APN, CD13) (P15144 whole entry): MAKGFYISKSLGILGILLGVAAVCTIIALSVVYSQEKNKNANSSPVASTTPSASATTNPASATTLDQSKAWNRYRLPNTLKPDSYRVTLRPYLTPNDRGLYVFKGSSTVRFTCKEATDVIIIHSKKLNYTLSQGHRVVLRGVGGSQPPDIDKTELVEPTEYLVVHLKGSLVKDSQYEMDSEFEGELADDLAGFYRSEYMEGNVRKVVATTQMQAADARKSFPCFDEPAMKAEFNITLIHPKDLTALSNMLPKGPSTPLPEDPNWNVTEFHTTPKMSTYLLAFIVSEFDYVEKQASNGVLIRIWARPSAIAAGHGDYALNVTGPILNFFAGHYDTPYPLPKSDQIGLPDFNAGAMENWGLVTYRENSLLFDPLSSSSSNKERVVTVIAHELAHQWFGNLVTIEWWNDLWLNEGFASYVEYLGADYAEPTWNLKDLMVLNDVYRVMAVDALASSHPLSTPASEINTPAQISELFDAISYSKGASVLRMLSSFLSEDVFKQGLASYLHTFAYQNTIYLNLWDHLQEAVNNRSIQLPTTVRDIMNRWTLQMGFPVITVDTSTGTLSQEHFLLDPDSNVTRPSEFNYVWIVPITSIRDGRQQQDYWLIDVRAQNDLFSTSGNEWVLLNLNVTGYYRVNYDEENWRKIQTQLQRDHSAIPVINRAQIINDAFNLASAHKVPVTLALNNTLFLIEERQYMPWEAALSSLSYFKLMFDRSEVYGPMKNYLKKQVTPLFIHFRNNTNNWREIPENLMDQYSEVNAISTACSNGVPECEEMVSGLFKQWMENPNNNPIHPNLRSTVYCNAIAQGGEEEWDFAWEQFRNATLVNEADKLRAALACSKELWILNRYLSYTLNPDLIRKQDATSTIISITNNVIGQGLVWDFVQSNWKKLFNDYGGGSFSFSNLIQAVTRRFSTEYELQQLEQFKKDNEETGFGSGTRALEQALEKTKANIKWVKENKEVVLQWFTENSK

| SMILES | inhibition at 30 µM [%] | further results |
| --- | --- | --- |
| O=C(Cn1c2c(c3ccccc31)CCN(C(=O)c1cc(F)cc(F)c1)C2)NO [Compound D24, 2-(2-(3,5-difluorobenzoyl)-1,2,3,4-tetrahydro-9H-pyrido[3,4-b]indol-9-yl)-N-hydroxyacetamide] | 71.3 ± 4.25 | IC50: 7.13 ± 0.13 µM |
| COc1ccccc1C(=O)N1CCc2c(n(CC(=O)NO)c3ccccc23)C1 [Compound D8, N-hydroxy-2-(2-(2-methoxybenzoyl)-1,2,3,4-tetrahydro-9H-pyrido[3,4-b]indol-9-yl) acetamide] |  | Inhibitory rate (%) (compound at 30 µM, mean of at least three experiments): 56.7±0.42%; IC50 (mean of at least three experiments): 25 ± 3.32 µM |
| O=C(Cn1c2c(c3ccccc31)CCN(C(=O)c1ccccc1)C2)NO [Compound D3, 2-(2-benzoyl-1,2,3,4-tetrahydro-9H-pyrido[3,4-b]indol-9-yl)-N-hydroxyacetamide] | 74.4 ± 6.42 | IC50: 6.24 ± 0.43 µM |
| O=C(NO)c1ccc(Cn2c3c(c4ccccc42)CCN(C(=O)c2ccccc2F)C3)cc1 [Compound D15, 4-((2-(2-fluorobenzoyl)-1,2,3,4-tetrahydro-9H-pyrido[3,4-b]indol-9-yl)methyl)-N-hydroxybenzamide] | 28.7 ± 2.75 |  |
| O=C(Cn1c2c(c3ccccc31)CCN(C(=O)c1cc(F)ccc1F)C2)NO [Compound D28, 2-(2-(2,5-difluorobenzoyl)-1,2,3,4-tetrahydro-9H-pyrido[3,4-b]indol-9-yl)-N-hydroxyacetamide] | 78 ± 3.95 | IC50: 4.85 ± 0.55 µM |
| O=C(NO)c1ccc(Cn2c3c(c4ccccc42)CCN(C(=O)c2ccccc2)C3)cc1 [Compound D4, 4-((2-benzoyl-1,2,3,4-tetrahydro-9H-pyrido[3,4-b]indol-9-yl)methyl)-N-hydroxybenzamide] | 19.4 ± 4.53 |  |
| COc1ccc(C(=O)N2CCc3c(n(Cc4ccc(C(=O)NO)cc4)c4ccccc34)C2)cc1 [Compound D9, N-hydroxy-4-((2-(4-methoxybenzoyl)-1,2,3,4-tetrahydro-9H-pyrido[3,4-b]indol-9-yl)methyl)benzamide] | 24 ± 0.25 |  |
| O=C(Cn1c2c(c3ccccc31)CCN(C(=O)c1ccccc1C(F)(F)F)C2)NO [Compound D5, N-hydroxy-2-(2-(2-(trifluoromethyl)benzoyl)-1,2,3,4-tetrahydro-9H-pyrido[3,4-b]indol-9-yl)acetamide] | 62.9 ± 8.72 | IC50: 14.9 ± 1.03 µM |
| O=C(NO)c1ccc(Cn2c3c(c4ccccc42)CCN(C(=O)c2cc(F)cc(F)c2)C3)cc1 [Compound D25, 4-((2-(3,5-difluorobenzoyl)-1,2,3,4-tetrahydro-9H-pyrido[3,4-b]indol-9-yl)methyl)-N-hydroxybenzamide] | 27.9 ± 5.85 |  |
| O=C(NO)c1ccc(Cn2c3c(c4ccccc42)CCN(C(=O)c2ccccc2C(F)(F)F)C3)cc1 [Compound D6, N-hydroxy-4-((2-(2-(trifluoromethyl)benzoyl)-1,2,3,4-tetrahydro-9H-pyrido[3,4-b]indol-9-yl)methyl)benzamide] | 15.3 ± 3.66 |  |
| O=C(Cn1c2c(c3ccccc31)CCN(C(=O)c1ccc(C(F)(F)F)cc1)C2)NO [Compound D1, N-hydroxy-2-(2-(4-(trifluoromethyl)benzoyl)-1,2,3,4-tetrahydro-9H-pyrido[3,4-b]indol-9-yl)acetamide] | 35 ± 1.51 |  |
| O=C(NO)c1ccc(Cn2c3c(c4ccccc42)CCN(C(=O)c2ccc(F)cc2)C3)cc1 [Compound D11, 4-((2-(4-fluorobenzoyl)-1,2,3,4-tetrahydro-9H-pyrido[3,4-b]indol-9-yl)methyl)-N-hydroxybenzamide] | 35 ± 4.57 |  |
| O=C(NO)c1ccc(Cn2c3c(c4ccccc42)CCN(C(=O)c2ccc(F)cc2F)C3)cc1 [Compound D23, 4-((2-(2,4-difluorobenzoyl)-1,2,3,4-tetrahydro-9H-pyrido[3,4-b]indol-9-yl)methyl)-N-hydroxybenzamide] | 65 ± 5.97 |  |
| O=C(NO)c1ccc(Cn2c3c(c4ccccc42)CCN(C(=O)c2cccc(Br)c2)C3)cc1 [Compound D22, 4-((2-(3-bromobenzoyl)-1,2,3,4-tetrahydro-9H-pyrido[3,4-b]indol-9-yl)methyl)-N-hydroxybenzamide] | 19.2 ± 3.7 |  |
| O=C(NO)c1ccc(Cn2c3c(c4ccccc42)CCN(C(=O)c2cccc(F)c2)C3)cc1 [Compound D13, 4-((2-(3-fluorobenzoyl)-1,2,3,4-tetrahydro-9H-pyrido[3,4-b]indol-9-yl)methyl)-N-hydroxybenzamide] | 13.2 ± 0.4 |  |
| O=C(Cn1c2c(c3ccccc31)CCN(C(=O)c1c(F)cccc1Cl)C2)NO [Compound D29, 2-(2-(2-chloro-6-fluorobenzoyl)-1,2,3,4-tetrahydro-9H-pyrido[3,4-b]indol-9-yl)-N-hydroxyacetamide] | 60 ± 4.95 | IC50: 9.23 ± 0.67 µM |
| Cc1ccccc1C(=O)N1CCc2c(n(Cc3ccc(C(=O)NO)cc3)c3ccccc23)C1 [Compound D17, N-hydroxy-4-((2-(2-methylbenzoyl)-1,2,3,4-tetrahydro-9H-pyrido[3,4-b]indol-9-yl)methyl)benzamide] | 23.6 ± 4.51 |  |
| CCc1ccc(C(=O)N2CCc3c(n(CC(=O)NO)c4ccccc34)C2)cc1 [Compound D18, 2-(2-(4-ethylbenzoyl)-1,2,3,4-tetrahydro-9H-pyrido[3,4-b]indol-9-yl)-N-hydroxyacetamide] | 53.2 ± 2.08 |  |
| CCCc1ccc(C(=O)N2CCc3c(n(CC(=O)NO)c4ccccc34)C2)cc1 [Compound D26, N-hydroxy-2-(2-(4-propylbenzoyl)-1,2,3,4-tetrahydro-9H-pyrido[3,4-b]indol-9-yl)acetamide] | 53.1 ± 7.31 |  |
| O=C(NO)c1ccc(Cn2c3c(c4ccccc42)CCN(C(=O)c2ccccc2Cl)C3)cc1 [Compound D20, 4-((2-(2-chlorobenzoyl)-1,2,3,4-tetrahydro-9H-pyrido[3,4-b]indol-9-yl)methyl)-N-hydroxybenzamide] | 19.1 ± 4.17 |  |
| O=C(Cn1c2c(c3ccccc31)CCN(C(=O)c1ccc(F)cc1)C2)NO [Compound D10, 2-(2-(4-fluorobenzoyl)-1,2,3,4-tetrahydro-9H-pyrido[3,4-b]indol-9-yl)-N-hydroxyacetamide] | 42.5 ± 1.42 |  |
| O=C(Cn1c2c(c3ccccc31)CCN(C(=O)c1cccc(Br)c1)C2)NO [Compound D21, 2-(2-(3-bromobenzoyl)-1,2,3,4-tetrahydro-9H-pyrido[3,4-b]indol-9-yl)-N-hydroxyacetamide] | 78.2 ± 5.43 | IC50: 7.82 ± 1.05 µM |
| CCc1ccc(C(=O)N2CCc3c(n(Cc4ccc(C(=O)NO)cc4)c4ccccc34)C2)cc1 [Compound D19, 4-((2-(4-ethylbenzoyl)-1,2,3,4-tetrahydro-9H-pyrido[3,4-b]indol-9-yl)methyl)-N-hydroxybenzamide] | 19.5 ± 4.22 |  |
| O=C(NO)c1ccc(Cn2c3c(c4ccccc42)CCN(C(=O)c2ccc(C(F)(F)F)cc2)C3)cc1 [Compound D2, N-hydroxy-4-((2-(4-(trifluoromethyl)benzoyl)-1,2,3,4-tetrahydro-9H-pyrido[3,4-b]indol-9-yl)methyl)benzamide] | 13.3 ± 3.25 |  |
| CCCc1ccc(C(=O)N2CCc3c(n(Cc4ccc(C(=O)NO)cc4)c4ccccc34)C2)cc1 [Compound D27, N-hydroxy-4-((2-(4-propylbenzoyl)-1,2,3,4-tetrahydro-9H-pyrido[3,4-b]indol-9-yl)methyl)benzamide] | 20.4 ± 5.78 |  |
| COc1ccccc1C(=O)N1CCc2c(n(Cc3ccc(C(=O)NO)cc3)c3ccccc23)C1 [Compound D7, N-hydroxy-4-((2-(2-methoxybenzoyl)-1,2,3,4-tetrahydro-9H-pyrido[3,4-b]indol-9-yl)methyl)benzamide] | 17.9 ± 0.84 |  |
